Marks after values point to notes of the source that are not given here.
How the values were obtained:
[1] = tested on: Sprague-Dawley rats; experiment: Effect on blood lipid level in rats fed high-cholesterol diet (Experimental Example 1); assay type: in vivo, rat; settings: rats on 1% cholesterol diet, 5 weeks; for Atherogenic index (AI): (total cholesterol − HDL cholesterol)/HDL cholesterol; for HDL-cholesterol/total cholesterol / HDL-cholesterol / Total cholesterol / Triglyceride: plasma, 0.02% lovastatin or 0.046% BN30028 in diet; for HDL-cholesterol / Total cholesterol / Triglyceride: average ± standard deviation
Source text: 30 of 4-week-old male white Sprague-Dawley rats (Bio Genomics Inc., Korea), each weighing about […], were divided into three groups by a randomized block design. The rats of the three groups were fed with three different high-cholesterol diets, i.e., AIN-76 laboratory animal diets (TEKLAD premier Co., Madison, Wis., U.S.A.) containing 1% cholesterol (Control group), 1% cholesterol plus 0.02% lovastatin (Choongwae Pharma. Corp., Korea) and 1% cholesterol plus 0.046% BN30028, respectively, as shown in Table I.
The rats were allowed free access to the specified diets and water for 5 weeks and the ingestion amounts were recorded daily. The rats were weighed every 5 days, and then the record was analyzed.
Blood samples were taken from vena hypogastrica of the rats of the three dietary groups raised in Step 1 and centrifuged to separate plasma. The total cholesterol level was measured by using a diagnosis kit purchased from Sigma (USA), Cat. No.: C0534, applying the method of Allain et al. (Allain et al., Clin. Chem., 20, 470-475 (1974)). The HDL fraction was separated by using a kit purchased from Sigma, Cat. No.: 352-1 applying the heparin-manganese precipitation method (Waenic R. G. and Albers J. J., J Lipid Res., 19, 65-76 (1978)) and the HDL-cholesterol level was measured by using a kit purchased from Sigma, Cat. No.: C9908. The triglyceride level was measured using a kit purchased from Sigma, Cat. No.: 336-10) applying the lipase-glycerol phosphate oxidase method (McGowan, M. W. et al., Clin. Chem., 29, 538-542(1983)). All the data are expressed by average±standard deviation.

[2] = tested on: New Zealand White rabbits; experiment: Fatty streak in the main artery of cholesterol-fed rabbits (Experimental Example 2); assay type: in vivo, rabbit; settings: 8 weeks; for Proportion of stained region (fatty streak region) per unit area of the main artery: 1% cholesterol + RC4 diet, lovastatin 1 mg/kg or BN30028 0.05 wt %, Oil Red O, average ± standard deviation; for Proportion of the fatty streak region compared to the control group / Arterial endothelium, macrophage-lipid complex / atherosclerotic plaque (photographs): 1% cholesterol diet; for Arterial endothelium, macrophage-lipid complex / atherosclerotic plaque (photographs): FIGS. 1a-1c
Description: The rabbits raised in Step 1 were sacrificed and their chests were incised. The incision was performed downward to the diaphragm along the aortic arch and the fat surrounding the main artery was removed. The main artery was incised in the middle along the longitudinal axis from the second aortic intercostal artery anastomoses to the seventh aortic intercostal artery anastomoses and fixed with 10% neutral buffered formalin for 24 hours. Then, the incised main artery was pinned to a dish for staining of fatty streaks according to the method of Esper, E., et al. (J. Lab. Clin. Med., 121, 103-110 (1993)). The staining carried out by washing the artery three times with propylene glycol for 2 minutes respectively. The artery was stained for 30 minutes with a saturated solution of Oil Red O (ORO, Sigma Co.) dissolved in propylene glycol. Thereafter, the artery was washed twice with 85% propylene glycol for 3 minutes respectively to remove the remaining staining solution and, then once with physiological saline. The artery was photographed and the photograph was traced. The proportion (%) of stained region (fatty streak region) per unit area of the main artery was determined with an image analyzer (LEICA, Q-600, Germany). The significant differences between the test groups were tested by student t-test using Microsoft excel (version 7.0) program

[3] = tested on: ACAT; experiment: ACAT activity in liver microsomes of treated rabbits (Experimental Example 4); assay type: in vivo, rabbit; settings: liver microsomes of rabbits fed 8 weeks; for ACAT activity: lovastatin 1 mg/kg or BN30028 0.05 wt %, average ± standard deviation; for ACAT activity inhibition: relative to control group
Description: The rabbits raised as described in step 1 of the Experimental Example 2 were sacrificed by decapitation and the livers were removed from the rabbits. 1 g of the liver tissue taken from each rabbit was homogenized in 5 ml of homogenization medium (0.1 M KH2PO4, pH 7.4, 0.1 mM EDTA and 10 mM β-mercaptoethanol). The homogenate was centrifuged at 3,000×g for 10 minutes at 4° C. and the supernatant thus obtained was centrifuged at 15,000×g for 15 minutes at 4° C. to obtain a supernatant. The resulting supernatant was put into an ultracentrifuge tube (Beckman) and centrifuged at 100,000×g for 1 hour at 4° C. to obtain microsomal pellets, which were then suspended in 3 ml of the homogenization medium and centrifuged at 100,000×g for 1 hour at 4° C. The pellets thus obtained were suspended in 1 ml of the homogenization medium. The protein concentration of the resulting suspension was determined by Lowry's method and then adjusted to the range of 4 to 8 mg/ml. The resulting suspension was stored in a deep freezer (Biofreezer, Forma Scientific Inc.).
6.67 μl, of 1 mg/ml cholesterol solution in acetone was mixed with 6 μl of 10% Triton WR-1339 (Sigma Co.) in acetone. Acetone was removed from the mixture by evaporation under a nitrogen flow. To the resulting mixture, distilled water was added to adjust the concentration of cholesterol to 30 mg/ml.
To 10 μl of the resulting aqueous cholesterol solution, 10 μl of 1 M KH2PO4 (pH 7.4), 5 μl of 0.6 mM bovine serum albumin (BSA), 10 μl of the microsome solution obtained in Step 1 and 55 μl of distilled water (total 90 μl) were added. The mixture was pre-incubated in a water bath at 37° C. for 30 minutes.
10 μl of (1-^14C) oleyl-CoA solution (0.05 μCi, final concentration: 10 μM) was added to the pre-incubated mixture and the resulting mixture was incubated in a water bath at 37° C. for 30 minutes. 500 μl of isopropanol:heptane mixture (4:1 (v/v)), 300 μl of heptane and 200 μl of 0.1 M KH2PO4 (pH 7.4). were added to the mixture. The mixture was mixed vigorously using a vortex mixer and then allowed to stand at room temperature for 2 minutes.
200 μl of the resulting supernatant was put in a scintillation bottle and 4 ml of scintillation fluid (Lumac) was added thereto. The mixture was assayed for radioactivity with 1450 Microbeta liquid scintillation counter (Wallacoy, Finland). ACAT activity was calculated as picomoles of cholesteryl oleate synthesized per minute per mg protein (pmoles/min/mg protein). All the data are expressed by average±standard deviation(p<0.05).

CC[C@H](C)C(=O)O[C@H]1C[C@@H](C)C=C2C=C[C@H](C)[C@H](CC[C@@H]3C[C@@H](O)CC(=O)O3)[C@H]21 [Lovastatin, reference compound]
Atherogenic index (AI) [1]: 2.3 ± 0.2 | HDL-cholesterol/total cholesterol [1]: 30.2 ± 0.5% | HDL-cholesterol [1]: 23.4 ± 0.4 mg/dL | Total cholesterol [1]: 77.4 ± 1.8 mg/dL | Triglyceride [1]: 69.0 ± 4.7 mg/dL | Increase of triglyceride as compared to the control group [1]: 25% | Reduction of total plasma cholesterol level as compared to the control group [1]: 6% | Proportion of stained region (fatty streak region) per unit area of the main artery [2]: 18.2 ± 10.4^b % | Proportion of the fatty streak region compared to the control group [2]: significantly reduced | Arterial endothelium, macrophage-lipid complex / atherosclerotic plaque (photographs) [2]: clean | ACAT activity [3]: 96.2 ± 21.3 pmol/minute/mg protein | ACAT activity inhibition [3]: 23.8%

COC(=O)C(Cc1ccccc1)NC(=O)CCc1ccc(O)c(O)c1 (stereo not drawn) [BN30028, 2-[3-(3,4-dihydroxyphenyl)propionylamino]-3-phenyl propionic acid methyl ester]
Atherogenic index (AI) [1]: 1.84 ± 0.2 | HDL-cholesterol/total cholesterol [1]: 35.1 ± 0.6% | HDL-cholesterol [1]: 25.6 ± 0.6 mg/dL | Total cholesterol [1]: 72.8 ± 3.7 mg/dL | Triglyceride [1]: 47.6 ± 1.6 mg/dL | Reduction of total plasma cholesterol level as compared to the control group [1]: 12% | Reduction of triglyceride as compared to the control group [1]: 15% | Proportion of stained region (fatty streak region) per unit area of the main artery [2]: 16.1 ± 9.6^b % | Proportion of the fatty streak region compared to the control group [2]: significantly reduced | Arterial endothelium, macrophage-lipid complex / atherosclerotic plaque (photographs) [2]: clean | ACAT activity [3]: 93.9 ± 21.5 pmol/minute/mg protein | ACAT activity inhibition [3]: 26.2%

Source: patent US7223793B2, “Phenolic acid derivatives and composition for preventing or treating blood lipid level-related diseases comprising the same” (Bionutrigen Co., Ltd., priority 2001, dated 2007)
